The values that follow are results of earlier work, collected in patent EP3137069B1, “NANOPARTICLE FORMULATION CONTAINING FARNESYLTHIOSALICYLIC ACID (SALIRASIB)” (Pehlivan, Sibel, priority 2014, dated 2015).

≈ marks a conversion by molar mass, not a printed value.

For `CC(C)=CCCC(C)=CCCC(C)=CCSc1ccccc1C(=O)O` [FTA, Farnesylthiosalicylic acid], the “solubility in organic solvents” value (organic solvents like ethanol, DMSO and dimethylformamide) is recorded as 20 mg/mL (≈ 55.8 mM). Further, the solubility in water result (water) is “insoluble”.
